Data from ChEMBL document CHEMBL1201862, “PubChem BioAssay data set” (2004).
Activity calls are given as the source filed them.

Key:
[1] = target: Glycogen synthase kinase-3 alpha (Homo sapiens, UniProt P49840); assay: human GSK3 alpha kinase inhibition, dose response, selectivity assay for GSK3beta inhibitor project, biochemical, microfluidics, dry powder samples, set 2 (AID 623978); assay type: functional
[2] = target: Glycogen synthase kinase-3 beta (Homo sapiens, UniProt P49841); assay: GSK3beta kinase inhibitors, dose response, biochemical, microfluidics, dry powder samples, set 2 (AID 623989); assay type: functional
BJ [3] = assay: cytotoxicity toward Ras-transformed BJeLR fibroblasts, dose response, cell-based, alamar blue fluorescence, cherrypicked samples (AID 2631); assay type: functional; settings: Homo sapiens;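 note: confirmatory dose-response assay in RAS-dependent BJ fibroblasts engineered with TERT, LT and ST, with cytotoxicity read by fluorescence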
Vero [4] = assay: cells; assay type: functional; settings: Chlorocebus sabaeus
Prothrombin = Prothrombin (Bos taurus, UniProt P00735); assay: thrombin inhibition, dose response, biochemical, fluorescence polarization, uHTS hits (AID 602369); assay type: functional
[5] = target: 72 kDa type IV collagenase (Homo sapiens, UniProt P08253); assay: Dose Response validation of uHTS RPN11 inhibitor hits using a MMP-2 Fluorescence assay.; assay type: functional
Mu-type opioid receptor = Mu-type opioid receptor (Homo sapiens, UniProt P35372); assay: HTS Image-Based Screen for Agonists of the MOR Receptor. [Related pubchem assays (depositor defined):AID1777, AID1785, AID1786, AID2133]; assay type: functional;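 note: imaging of beta-arrestin GFP recruitment into spots after receptor activation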
BJ [6] = assay: cytotoxicity toward BJ-TERT-LT-ST fibroblasts, dose response, cell-based, RAS-independent, luminescence (AID 1935); assay type: functional; settings: Homo sapiens;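 note: BJ fibroblasts immortalized with TERT plus LT and ST oncogenes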
[7] = target: T1, Kappa-type opioid receptor (Homo sapiens, UniProt P41145); assay type: functional
Beta-galactosidase [8] = target: T2, Beta-galactosidase (Escherichia coli, UniProt Q8VNN2); assay: PubChem AID 485352; assay type: functional
Vero [9] = assay: cells; assay type: functional, cell-based; settings: Chlorocebus sabaeus
[10] = target: T3, Polyadenylate-binding protein 1 (Homo sapiens, UniProt P11940); assay: PABP1 MLLE–PAM2 binding inhibitor potency, dose response, biochemical, fluorescence polarization, FITC-PAM2 peptide (AID 602259); assay type: functional; settings: read-out: IC50_Mean
[11] = cytotoxicity in HEK-293T cells, dose response, cytotoxicity control for TCR NF-kB inhibitor project, luminescence, T-cell screen hits (AID 489026); assay type: functional, cell-based;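 note: cells exposed to compound about 14 hours before the viability readout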
[12] = Luminescence-based dose response cell-based high throughput screening assay for cytotoxic compounds using the IEC-6 intestinal epithelial cell line. [Related pubchem assays: 1858 (Summary AID.), 1825 (Counterscreen.), 1907 (Confirmation screen.)]; assay type: functional
[13] = Luminescence Cell-Based Dose Response HTS to Identify Activators of Luciferase Translation or Activity in H4 […] Cells. [Related pubchem assays: 1829 (Project Summary), 1814 (Primary HTS)]; assay type: functional
[14] = target: T3, Polyadenylate-binding protein 1; assay: PABP1 MLLE–PAM2 interaction inhibitors, dose response, miRNA deadenylation inhibitor project, biochemical, fluorescence polarization, Cy5-PAM2 peptide, secondary (AID 602260); assay type: functional; settings: read-out: IC50_Mean
[15] = target: 26S proteasome non-ATPase regulatory subunit 14 (Homo sapiens, UniProt O00487); assay: inhibition of proteasome subunit RPN11 – biochemical, fluorescence polarization, uHTS hits, confirmation (AID 602368); assay type: functional
[16] = control 3'UTR Renilla luciferase suppression, dose response, counter-screen for Shn3 inhibitor project, cell-based, Clone20-Shn3RL, cherry-picked (AID 624133); assay type: functional
[17] = Shn3 3'UTR reporter inhibitors, dose response, cell-based, Clone20 osteoblasts, firefly luciferase, cherry-picked (AID 624132); assay type: functional;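 note: firefly luciferase luminescence from reporter carrying the Shn3 3'UTR in osteoblasts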
BJ [18] = assay: cells; assay type: functional, cell-based; settings: Homo sapiens
[19] = NIH-3T3 fibroblast cytotoxicity, dose response, cytotoxicity control, cell-based, fluorescence, Alamar Blue, secondary assay (AID 2327); assay type: functional;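 note: NIH-3T3 mouse fibroblasts cultured with fluconazole at 8 µg/mL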
[20] = target: T4, Delta-type opioid receptor (Homo sapiens, UniProt P41143); assay: HTS Image-Based Screen for Antagonists of the DOR Receptor. [Related pubchem assays (depositor defined):AID1777, AID1785, AID1786, AID2133]; assay type: functional
[21] = target: Type-1 angiotensin II receptor (Homo sapiens, UniProt P30556); assay: AT1 receptor antagonists, dose response, selectivity assay for APJ receptor antagonist project, cell-based, uHTS hits (AID 463214); assay type: functional;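 note: antagonist potency against angiotensin II stimulated AT1 response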
[22] = cytotoxicity toward DRD oncogenic fibroblasts, dose response, cell-based, non-viral oncogenic, luminescence (AID 1934); assay type: functional; settings: Homo sapiens
[23] = target: T1, Kappa-type opioid receptor; assay type: functional; remark: listed apart in the source
H4 = assay: Luminescence Cell-Based Dose Response HTS to Identify Activators of 5'UTR Stem-Loop Driven Prion Protein mRNA Translation in H4 Neuroglioblastoma Cells. [Related pubchem assays: 1829 (Project Summary), 1814 (Primary HTS)]; assay type: functional; settings: Homo sapiens
BJ [24] = assay: cytotoxicity toward BJ-TERT fibroblasts, dose response, cell-based, RAS-independent, luminescence (AID 1933); assay type: functional; settings: Homo sapiens
[25] = Luminescence Cell-Based Dose Confirmation HTS to Identify Activators of 5'UTR Stem-Loop Driven Alpha-Synuclein mRNA Translation in H4 Neuroglioblastoma Cells. [Related pubchem assays: 1829 (Project Summary), 1814 (Primary HTS)]; assay type: functional
Beta-galactosidase [26] = target: T2, Beta-galactosidase; assay type: functional
[27] = target: T4, Delta-type opioid receptor; assay: HTS Image-Based Screen for Agonists of the DOR Receptor. [Related pubchem assays (depositor defined):AID1777, AID1786, AID2133]; assay type: functional
[28] = target: Multidrug resistance protein CDR2 (Candida albicans (strain SC5314 / ATCC MYA-2876) (Yeast), UniProt P78595); assay: CaCDR2 efflux pump inhibitors in yeast, dose response, S. cerevisiae AD1-8u, singleplex, Cherry Pick1 hits (AID 588604); assay type: functional
[29] = target: Latent membrane protein 1 (Human herpesvirus 4 (strain B95-8), UniProt P03230); assay: TES1-eGFP NF-kB reporter inhibition versus Tet-On dsRED, dose response, selectivity assay for LMP1 NF-kB inhibitor project, imaging, HEK293T, dual-color eGFP/dsRED, cherry-picks (AID 588398); assay type: functional, cell-based
HEK293 = assay: inhibitors of LMP1-driven NF-kB reporter, dose response, cell-based, HEK293, luciferase, cherry-pick (AID 588343); assay type: functional; settings: Homo sapiens
Nonstructural protein 1 = Nonstructural protein 1 (Influenza A virus, UniProt Q194T2); assay type: functional, Influenza A virus (A/California/07/2009(H1N1))
INS1 [30] = assay: protection from cytokine-driven beta-cell apoptosis, dose response, JC-1 fluorescence, INS-1E, dry powder, set 2 (AID 488867); assay type: functional, cell-based; settings: Rattus norvegicus
INS1 [31] = assay: inhibitors of cytokine-induced nitrite release, dose response, cell-based, Griess absorbance, INS-1E, dry powder, set 2 (AID 488868); assay type: functional; settings: Rattus norvegicus
INS1 [32] = assay: caspase-3/7 inhibition in cytokine-treated INS-1E, dose response, beta-cell apoptosis inhibitor project, cell-based, caspase luminescence, dry powder (AID 488848); assay type: functional; settings: Rattus norvegicus
INS1 [33] = assay: protection of INS-1E cells from cytokine death, dose response, ATP luminescence, dry powder (AID 488844); assay type: functional, cell-based; settings: Rattus norvegicus
[34] = inhibitors of cytokine-induced nitrite release, dose response, cell-based, Griess absorbance, INS-1E, dry powder, set 3 (AID 488870); assay type: functional; settings: Rattus norvegicus
[35] = target: Dual specificity tyrosine-phosphorylation-regulated kinase 1A (Homo sapiens, UniProt Q13627); assay type: functional;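 note: measured against DYRK1A as one member of a broad kinome profiling panel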
[36] = target: Serine/threonine-protein kinase pim-3 (Homo sapiens, UniProt Q86V86); assay type: functional;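 note: value obtained as one member of a broad kinase panel profiling effort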
[37] = target: Dual specificity protein kinase CLK4 (Homo sapiens, UniProt Q9HAZ1); assay type: functional
[38] = target: Mitogen-activated protein kinase kinase kinase kinase 4 (Homo sapiens, UniProt O95819); assay type: functional
[39] = target: Casein kinase II subunit alpha (Homo sapiens, UniProt P68400); assay type: functional
[40] = target: Serine/threonine-protein kinase pim-1 (Homo sapiens, UniProt P11309); assay type: functional
[41] = target: Casein kinase I isoform delta (Homo sapiens, UniProt P48730); assay type: functional;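 note: measured as one member (CSNK1D) of a kinome panel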
[42] = target: DNA dC->dU-editing enzyme APOBEC-3A (Homo sapiens, UniProt P31941); assay: SAR analysis of small molecule inhibitors of APOBEC3A DNA Deaminase via a fluorescence-based single-stranded DNA deaminase assay - Set 2.; assay type: functional; settings: read-out: IC50_Mean
[43] = target: DNA dC->dU-editing enzyme APOBEC-3G (Homo sapiens, UniProt Q9HC16); assay: SAR analysis of small molecule inhibitors of APOBEC3G DNA Deaminase via a fluorescence-based single-stranded DNA deaminase assay - Set 2.; assay type: functional; settings: read-out: IC50_Mean
[44] = target: T5, Sphingosine 1-phosphate receptor 4 (Homo sapiens, UniProt O95977); assay: Late-stage fluorescence-based dose-response cell-based counterscreen assay to identify agonists of the Sphingosine 1-Phosphate Receptor 3 (S1P3): Sphingosine 1-Phosphate Receptor 4 (S1P4) agonist assay.; assay type: functional
T5 sequence (O95977 whole entry): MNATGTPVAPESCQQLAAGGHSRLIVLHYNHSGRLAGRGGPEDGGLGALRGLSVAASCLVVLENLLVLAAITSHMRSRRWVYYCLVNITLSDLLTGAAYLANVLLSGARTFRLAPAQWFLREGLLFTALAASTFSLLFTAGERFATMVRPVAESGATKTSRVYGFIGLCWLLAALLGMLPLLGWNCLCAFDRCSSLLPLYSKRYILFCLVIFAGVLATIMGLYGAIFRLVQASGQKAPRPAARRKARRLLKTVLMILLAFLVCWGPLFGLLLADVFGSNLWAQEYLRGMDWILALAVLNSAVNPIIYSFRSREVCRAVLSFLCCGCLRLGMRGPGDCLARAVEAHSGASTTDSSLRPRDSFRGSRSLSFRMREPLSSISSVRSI

[45] = target: Sphingosine 1-phosphate receptor 2 (Homo sapiens, UniProt O95136); assay: Late-stage fluorescence-based dose-response cell-based counterscreen assay to identify agonists of the Sphingosine 1-Phosphate Receptor 3 (S1P3): Sphingosine 1-Phosphate Receptor 2 (S1P2) agonist assay.; assay type: functional

T2 sequence (Q8VNN2 whole entry): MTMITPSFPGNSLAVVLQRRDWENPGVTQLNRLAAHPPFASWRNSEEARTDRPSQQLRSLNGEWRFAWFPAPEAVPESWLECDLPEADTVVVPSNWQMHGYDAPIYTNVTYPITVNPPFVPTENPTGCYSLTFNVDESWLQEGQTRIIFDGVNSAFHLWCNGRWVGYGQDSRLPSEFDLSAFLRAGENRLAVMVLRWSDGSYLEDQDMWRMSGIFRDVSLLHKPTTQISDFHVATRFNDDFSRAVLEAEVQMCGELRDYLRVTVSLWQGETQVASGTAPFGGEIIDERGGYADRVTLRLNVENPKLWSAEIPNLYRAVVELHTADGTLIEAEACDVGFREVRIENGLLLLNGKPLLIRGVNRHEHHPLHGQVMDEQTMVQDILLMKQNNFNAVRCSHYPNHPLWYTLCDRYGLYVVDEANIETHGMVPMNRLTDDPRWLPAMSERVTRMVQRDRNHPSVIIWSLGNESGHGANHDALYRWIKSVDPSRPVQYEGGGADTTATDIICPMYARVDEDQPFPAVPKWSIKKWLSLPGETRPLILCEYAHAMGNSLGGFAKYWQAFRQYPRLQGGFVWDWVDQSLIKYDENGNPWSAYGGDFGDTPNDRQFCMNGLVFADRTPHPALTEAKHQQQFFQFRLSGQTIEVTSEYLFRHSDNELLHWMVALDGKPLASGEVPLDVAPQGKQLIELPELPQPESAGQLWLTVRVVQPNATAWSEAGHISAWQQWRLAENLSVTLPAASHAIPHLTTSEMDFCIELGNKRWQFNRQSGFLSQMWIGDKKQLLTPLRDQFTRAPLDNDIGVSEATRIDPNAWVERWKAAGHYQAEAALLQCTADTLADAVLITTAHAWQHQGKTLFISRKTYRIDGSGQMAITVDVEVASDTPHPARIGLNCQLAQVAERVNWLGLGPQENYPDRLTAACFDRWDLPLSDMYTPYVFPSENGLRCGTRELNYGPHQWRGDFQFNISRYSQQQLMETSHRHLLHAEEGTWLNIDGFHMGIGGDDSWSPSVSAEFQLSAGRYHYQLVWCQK
T4 sequence (P41143 whole entry): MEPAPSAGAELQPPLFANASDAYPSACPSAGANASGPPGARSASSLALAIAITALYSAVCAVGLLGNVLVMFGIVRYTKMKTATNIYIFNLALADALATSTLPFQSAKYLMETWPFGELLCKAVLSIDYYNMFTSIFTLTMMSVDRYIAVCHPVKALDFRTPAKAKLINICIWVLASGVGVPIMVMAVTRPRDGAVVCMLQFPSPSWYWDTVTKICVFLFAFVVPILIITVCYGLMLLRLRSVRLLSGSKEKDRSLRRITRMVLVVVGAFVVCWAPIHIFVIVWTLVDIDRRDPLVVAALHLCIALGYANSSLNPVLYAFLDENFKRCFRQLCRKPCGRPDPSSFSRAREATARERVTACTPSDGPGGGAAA
T3 sequence (P11940 whole entry): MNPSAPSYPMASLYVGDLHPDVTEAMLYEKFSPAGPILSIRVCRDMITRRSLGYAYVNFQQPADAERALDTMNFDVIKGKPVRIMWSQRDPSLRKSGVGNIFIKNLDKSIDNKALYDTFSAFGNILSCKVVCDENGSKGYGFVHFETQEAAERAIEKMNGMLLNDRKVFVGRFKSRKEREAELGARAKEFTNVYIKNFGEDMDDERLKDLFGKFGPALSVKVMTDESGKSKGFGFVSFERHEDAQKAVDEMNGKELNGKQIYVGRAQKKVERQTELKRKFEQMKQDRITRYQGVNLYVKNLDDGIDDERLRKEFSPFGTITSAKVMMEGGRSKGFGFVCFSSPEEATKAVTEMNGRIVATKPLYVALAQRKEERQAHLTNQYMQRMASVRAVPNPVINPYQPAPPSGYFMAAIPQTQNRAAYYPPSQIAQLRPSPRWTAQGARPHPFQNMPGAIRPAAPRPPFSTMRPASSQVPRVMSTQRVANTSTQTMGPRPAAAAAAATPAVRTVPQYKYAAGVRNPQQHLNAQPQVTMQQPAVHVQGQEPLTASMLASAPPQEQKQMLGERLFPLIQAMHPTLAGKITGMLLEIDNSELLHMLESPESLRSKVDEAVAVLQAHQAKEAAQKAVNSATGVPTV
T1 sequence (P41145 whole entry): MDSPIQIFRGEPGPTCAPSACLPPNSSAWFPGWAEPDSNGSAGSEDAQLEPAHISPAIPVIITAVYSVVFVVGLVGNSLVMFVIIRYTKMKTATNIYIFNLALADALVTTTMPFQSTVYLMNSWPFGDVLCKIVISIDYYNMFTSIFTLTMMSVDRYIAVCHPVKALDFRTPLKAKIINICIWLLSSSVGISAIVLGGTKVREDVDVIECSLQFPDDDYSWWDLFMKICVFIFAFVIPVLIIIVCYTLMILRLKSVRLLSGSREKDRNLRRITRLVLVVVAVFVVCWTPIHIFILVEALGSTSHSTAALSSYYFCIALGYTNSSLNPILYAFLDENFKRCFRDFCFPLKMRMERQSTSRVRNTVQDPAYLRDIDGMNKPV
Mu-type opioid receptor, sequence (P35372 whole entry): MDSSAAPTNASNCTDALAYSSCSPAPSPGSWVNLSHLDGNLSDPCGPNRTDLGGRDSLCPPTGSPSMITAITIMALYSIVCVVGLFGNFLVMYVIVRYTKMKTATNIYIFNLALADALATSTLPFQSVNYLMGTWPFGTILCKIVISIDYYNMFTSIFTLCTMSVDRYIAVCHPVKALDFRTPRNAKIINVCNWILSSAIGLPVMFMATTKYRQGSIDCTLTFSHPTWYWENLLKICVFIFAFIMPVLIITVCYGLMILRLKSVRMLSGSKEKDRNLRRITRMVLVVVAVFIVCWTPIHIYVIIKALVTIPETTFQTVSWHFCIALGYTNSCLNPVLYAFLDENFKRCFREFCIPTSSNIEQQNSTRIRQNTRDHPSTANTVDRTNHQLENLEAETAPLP
Nonstructural protein 1, sequence (Q194T2 whole entry): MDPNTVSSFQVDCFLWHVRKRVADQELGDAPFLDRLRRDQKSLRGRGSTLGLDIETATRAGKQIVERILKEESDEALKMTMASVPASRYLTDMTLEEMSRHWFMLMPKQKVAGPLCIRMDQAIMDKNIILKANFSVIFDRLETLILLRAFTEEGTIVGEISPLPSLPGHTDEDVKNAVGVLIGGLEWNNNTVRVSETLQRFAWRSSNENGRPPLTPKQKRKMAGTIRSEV
72 kDa type IV collagenase, sequence (P08253 whole entry): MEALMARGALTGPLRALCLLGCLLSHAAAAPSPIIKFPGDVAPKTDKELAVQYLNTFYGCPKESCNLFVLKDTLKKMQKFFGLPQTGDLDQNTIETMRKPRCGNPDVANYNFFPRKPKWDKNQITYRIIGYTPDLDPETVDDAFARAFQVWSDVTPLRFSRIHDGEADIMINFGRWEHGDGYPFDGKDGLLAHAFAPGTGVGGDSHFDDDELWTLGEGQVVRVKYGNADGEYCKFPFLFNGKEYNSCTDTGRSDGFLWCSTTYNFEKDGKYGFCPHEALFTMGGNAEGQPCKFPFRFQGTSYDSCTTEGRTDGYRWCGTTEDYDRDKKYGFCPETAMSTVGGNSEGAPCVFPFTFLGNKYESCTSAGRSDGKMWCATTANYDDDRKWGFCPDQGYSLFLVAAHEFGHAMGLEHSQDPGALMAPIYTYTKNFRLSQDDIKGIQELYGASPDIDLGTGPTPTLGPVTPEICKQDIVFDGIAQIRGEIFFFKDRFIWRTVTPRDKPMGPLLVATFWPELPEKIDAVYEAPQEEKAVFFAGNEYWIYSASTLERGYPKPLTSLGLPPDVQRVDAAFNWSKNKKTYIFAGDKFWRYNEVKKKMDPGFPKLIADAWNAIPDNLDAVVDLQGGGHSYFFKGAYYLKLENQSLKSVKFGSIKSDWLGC
Serine/threonine-protein kinase pim-1, sequence (P11309 whole entry, canonical isoform): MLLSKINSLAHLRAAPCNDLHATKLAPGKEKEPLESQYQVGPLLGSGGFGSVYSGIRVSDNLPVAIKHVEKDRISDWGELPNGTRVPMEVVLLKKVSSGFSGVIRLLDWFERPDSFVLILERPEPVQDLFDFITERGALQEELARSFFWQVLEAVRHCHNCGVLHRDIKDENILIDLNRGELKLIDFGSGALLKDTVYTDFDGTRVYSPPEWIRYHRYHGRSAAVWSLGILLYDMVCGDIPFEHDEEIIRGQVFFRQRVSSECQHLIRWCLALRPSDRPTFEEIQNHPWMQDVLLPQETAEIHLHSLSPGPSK
Casein kinase II subunit alpha, sequence (P68400 whole entry): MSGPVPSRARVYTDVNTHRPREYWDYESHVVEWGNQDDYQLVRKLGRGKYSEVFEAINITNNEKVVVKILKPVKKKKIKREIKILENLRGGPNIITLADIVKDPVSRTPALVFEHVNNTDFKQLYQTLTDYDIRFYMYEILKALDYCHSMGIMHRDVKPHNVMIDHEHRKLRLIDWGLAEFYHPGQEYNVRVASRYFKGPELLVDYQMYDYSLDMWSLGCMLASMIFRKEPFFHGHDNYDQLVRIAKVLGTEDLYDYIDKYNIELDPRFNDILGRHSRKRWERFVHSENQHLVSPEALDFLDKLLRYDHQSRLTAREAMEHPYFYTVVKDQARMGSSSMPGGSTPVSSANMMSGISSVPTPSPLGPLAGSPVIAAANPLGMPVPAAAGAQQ
DNA dC->dU-editing enzyme APOBEC-3G, sequence (Q9HC16 whole entry): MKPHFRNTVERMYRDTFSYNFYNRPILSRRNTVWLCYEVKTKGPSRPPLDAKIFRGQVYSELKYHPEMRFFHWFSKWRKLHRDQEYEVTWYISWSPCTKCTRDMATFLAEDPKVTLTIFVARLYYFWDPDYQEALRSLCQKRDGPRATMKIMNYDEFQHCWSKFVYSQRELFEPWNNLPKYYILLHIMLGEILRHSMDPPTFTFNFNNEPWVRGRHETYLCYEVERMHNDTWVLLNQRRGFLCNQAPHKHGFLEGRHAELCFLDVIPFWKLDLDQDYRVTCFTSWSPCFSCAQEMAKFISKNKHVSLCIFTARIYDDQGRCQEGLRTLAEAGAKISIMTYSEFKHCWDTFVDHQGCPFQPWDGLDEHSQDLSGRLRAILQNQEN

Cc1cccc(OCC(=O)Nc2ccc3c(c2)C(=O)NC3=O)c1
AC50 [1]: 8 µM (active)
AC50 [2]: 1.36 µM (active)

O=C(Sc1cccc2cccnc12)c1ccccc1Br
EC50 (BJ [3]): 0.328 µM (active)
CC50 (Vero [4]): 9.91 µM (active)
IC50 (Prothrombin): > 100 µM (inactive)
IC50 [5]: > 100 µM (inactive)
EC50 (Mu-type opioid receptor): > 32 µM (inactive)
EC50 (BJ [6]): 36.8 µM (active)
IC50 [7]: 10.5 µM (active)
EC50 (Beta-galactosidase [8]): > 40 µM (inactive)
IC50 (Vero [9]): > 25 µM (active)
IC50 [10]: > 66 µM (inactive)
IC50 [11]: 57.8 µM (inactive)
IC50 [12]: 0.514 µM (active)
EC50 [13]: > 120 µM (not active)
IC50 [14]: > 66 µM (inactive)
IC50 [15]: 6.65 µM (active)
AC50 [16]: 13.3 µM (active)
AC50 [17]: 0.383 µM (active)
EC50 (BJ [18]): > 150 µM (inconclusive)
EC50 [19]: 31.8 µM (active)
IC50 [20]: > 32 µM (inactive)
IC50 [21]: 3.51 µM (active)
EC50 [22]: 2.48 µM (active)
IC50 [23]: > 32 µM
EC50 (H4): > 120 µM (not active)
EC50 (BJ [24]): 12.7 µM (active)
EC50 [25]: > 120 µM (not active)
EC50 (Beta-galactosidase [26]): > 31.5 µM (inactive)
EC50 [27]: > 32 µM (inactive)

O=C(Oc1ccc2c(=O)c(Oc3ccc4ccccc4c3)coc2c1)c1cncc(Br)c1
EC50 [28]: 22.2 µM (active)

CC(=NNC(=S)Nc1ccc(C)cc1)c1ccccn1
AC50 [29]: 0.793 µM (active)
AC50 (HEK293): 0.149 µM (active)
IC50 (Nonstructural protein 1): 16.6 µM (active)

COc1ccc(S(=O)(=O)N(C)C[C@@H]2Oc3c(NC(=O)Nc4cccc5ccccc45)cccc3C(=O)N([C@@H](C)CO)C[C@H]2C)cc1
AC50 (INS1 [30]): 259 µM (active)
AC50 (INS1 [31]): 46.8 µM (active)
AC50 (INS1 [32]): 81.2 µM (active)
AC50 (INS1 [33]): 4.88 µM (active)
AC50 [34]: 26.4 µM (active)

O=c1oc2ccccc2c2[nH]c(-c3ccccc3)nc12
Ki [35]: 1.58 µM (active)
Ki [36]: 1.58 µM (active)
Ki [37]: 1.26 µM (active)
Ki [38]: 5.01 µM (active)
Ki [39]: 2 µM (active)
Ki [40]: 1 µM (active)
Ki [41]: 6.31 µM (active)

O=C(O)c1cc2ncccn2n1
IC50 [42]: 2.6 µM (active)
IC50 [43]: 1.73 µM (active)

O=C(c1ccc(C2CC2)o1)N(C1CCCCC1)C1CCCCC1
EC50 [44]: > 50 µM (inactive)
EC50 [45]: > 50 µM (inactive)
